Several values for one entry are separate records, joined by “and”; a condition that tells them apart may be missing. Equal values may be shown once.
Key:
[1] = tested on: C. novyi-NT therapy-induced toxicity in mice bearing large subcutaneous CT26 tumors; assay: C. novyi-NT therapy of large subcutaneous CT26 tumors (therapy-induced toxicity); type: in vivo, mouse (BALB/c); settings: for mice surviving: CT26 tumor-bearing BALB/c mice, 12×10^6 spores intratumorally, ANP (osmotic pump 12 μg/day) or metyrosine (IP pre-treatment) given with parental C. novyi-NT
Protocol: ANP concentrations in the supernatant of ANP-C. novyi-NT culture and in mouse plasma were measured by an Elisa kit from Ray Biotech (EIAR-ANP-1) that recognizes both human and mouse ANP. ANP in the supernatant of ANP-C. novyi-NT culture were shown biological activities as described elsewhere (Lofton et al., 1990 Biochem. Biophys. Res. Comm., 172:793-9). Briefly, bacterial supernatants were applied to cultured bovine aortic endothelial cells (BAOEC, Cell Applications Inc.) for 3 minutes. cGMP concentrations were then measured in BAOEC lysates by the Direct cGMP Elisa Kit from Enzo following the manufacture's instruction.
The colon cancer cell line CT26 was injected subcutaneously into the right flank of six to eight week old female Balb/C mice as described elsewhere (Qiao et al., 2011 Oncotarget, 2:59-68). Tumor sizes were measured with a caliper and calculated as ½*L*W*H as described elsewhere (Tomayko et al., 1989 Can. Chemother. Pharmacol., 24:148-54). When tumors reached 600-900 mm^3 after about two weeks, 12×10^6 spores of C. novyi-NT or ANP-C. novyi-NT at 3×10^6/μl were injected intratumorally into 4 central parts of the tumor with a 32 G Hamilton syringe needle. The bacteria typical germinated in the tumors within 24 hours, turning them necrotic. Hydration of the mice was supported by daily subcutaneous injections of […] saline. Human ANP (Sigma) was dissolved in saline, loaded in mini-osmotic pumps (ALZET) with a release rate of 12 μg/day and implanted subcutaneously in the back of mice 12 hours before the spore injection. Pumps loaded with saline served as controls. Metyrosine was dissolved in PBS and injected IP at 60 mg/kg/day for three days before the C. novyi injection to deplete catecholamines in storage. Two hours after the spore injection, 60 mg/kg of metyrosine was injected intraperitoneally (IP). For each of the next three days, IP injections of metyrosine at 30 mg/kg were administered. Control groups were injected with PBS at the same time points.
Blood samples were collected into tubes containing 5 mM EDTA and 4 mM sodium metabisulfite after puncturing the facial vein or (terminally) by cardiac puncture. Subsequently, the samples were centrifuged and the plasmas were stored at −80° C. prior to analysis. Catecholamines (dopamine, norepinephrine and epinephrine) were measured using the 3-CAT Research ELISA kit from Labor Diagnostika Nord GmbH/Rocky Mountain Diagnostics. Cytokines were measured using Luminex assays based on Millipore Mouse and Human Cytokine/Chemokine panels.
ANP concentrations in the supernatant of ANP-C. novyi-642 NT culture and in mouse plasma were measured with an Elisa kit from Ray Biotech (EIAR-ANP-1) that recognizes both human and mouse ANP. […] Briefly, bacterial supernatants were applied to cultured bovine aortic endothelial cells (BAOEC, Cell Applications Inc.) for 3 minutes. cGMP concentrations were then measured in BAOEC lysates by the Direct cGMP Elisa Kit from Enzo following the manufacture's instruction.
The colon cancer cell line CT26 was injected subcutaneously into the right flank of six to eight weeks old female Balb/C mice as described elsewhere (see, e.g., Qiao et al. 2011 Oncotarget 2:59-68). Tumor sizes were measured with a caliper and calculated as ½*L*W*H as described elsewhere (see, e.g., Tomayko et al. 1989 Cancer Chemother Pharmacol 24:148-154). When tumors reached 600-900 mm^3 after about two weeks, 12×10^6 spores of C. novyi-NT or ANP-C. novyi-NT at 3×10^6/μl were injected intratumorally into 4 central parts of the tumor with a 32 G Hamilton syringe needle. The bacteria typical germinated in the tumors within 24 hours, turning them necrotic. Hydration of the mice was supported by daily subcutaneous injections of 500 μl saline. Human ANP (Sigma) was dissolved in saline, loaded in mini-osmotic pumps (ALZET) with a release rate of 12 μg/day and implanted subcutaneously in the back of mice 12 hours before the spore injection. Pumps loaded with saline served as controls. […]

[2] = tested on: Eμ-ALL bearing C57BL/6 mice treated with mCART19; assay: mCART19 treatment of syngeneic Eμ-ALL B-ALL model; type: in vivo, mouse (C57BL/6); settings: for catecholamine and cytokine release: 24 and 72 hours after mCART19; for therapeutic (antitumor) efficacy versus mCART19 alone: prophylaxis with ANP pump or metyrosine IP
Protocol: The Eμ-ALL cell line was derived from a lymphoid malignancy in an Eμ-myc transgenic mouse and upon IV injection, can develop B-ALL in C57BL/6 mice. The Eμ-ALL cells were co-cultured with feeder NIH-3T3 cells that were irradiated at 60 Gy, in RPMI 1640 media supplemented with 10% FBS, 0.05 mM 2-Mercaptoethanol and antibiotics. Eμ-ALL cells were transfected with luciferase via lentivirus. 2×10^6 Eμ-ALL cells were IV injected in female 6-8 week-old C57BL/6 mice via tail vein and after 6 days, mice were IP injected with cyclophosphamide (CPA) at 100 mg/kg for pre-conditioning as described elsewhere (see, e.g., Davila et al., 2013 PLoS One 8:e61338). One day after CPA treatment, 10×10^6 mCART19 cells were IV injected in the mice. Metyrosine was injected IP at 40 mg/kg/day for three days before the mCART19 injection. On the day of mCART19 injection, a fourth dose of 40 mg/kg was given IP and the mice were subsequently injected four more times at daily intervals at 30 mg/kg. One day before mCART19 injection, mini-osmotic pumps (ALZET) loaded with hANP with a release rate of 12 μg/day were implanted subcutaneously in the back of mice. Tumor load was monitored by Xenogen before and after mCART19 injection.

[3] = plasma, 36 hours after spore injection, versus parental C. novyi-NT alone

SMILES	mice surviving [1]	robust but not curative response, of surviving mice ([1]; CT26 tumors, surviving mice)	tissue damage and leukocyte/myeloid cell infiltration in lungs, liver, spleen ([1]; histology, versus parental C. novyi-NT)	circulating catecholamines [1, 3]	catecholamine and cytokine release [2]	therapeutic (antitumor) efficacy versus mCART19 alone [2]	circulating inflammatory cytokines and chemokines [1, 3]
CC[C@H](C)[C@@H]1NC(=O)[C@H](CCCNC(=N)N)NC(=O)[C@H](CC(=O)O)NC(=O)[C@H](CCSC)NC(=O)[C@H](CCCNC(=N)N)NC(=O)CNC(=O)CNC(=O)[C@H](Cc2ccccc2)NC(=O)[C@@H](NC(=O)[C@H](CO)NC(=O)[C@H](CO)NC(=O)[C@H](CCCNC(=N)N)NC(=O)[C@H](CCCNC(=N)N)NC(=O)[C@H](CC(C)C)NC(=O)[C@@H](N)CO)CSSC[C@@H](C(=O)N[C@@H](CC(N)=O)C(=O)N[C@@H](CO)C(=O)N[C@@H](Cc2ccccc2)C(=O)N[C@@H](CCCNC(=N)N)C(=O)N[C@@H](Cc2ccc(O)cc2)C(=O)O)NC(=O)CNC(=O)[C@H](CC(C)C)NC(=O)CNC(=O)[C@H](CO)NC(=O)[C@H](CCC(N)=O)NC(=O)[C@H](C)NC(=O)CNC1=O [ANP, atrial natriuretic peptide]	~75% and ~73%	20% and 23%	major reductions	major reductions	reduced	matched the therapeutic efficacy	
C[C@](N)(Cc1ccc(O)cc1)C(=O)O [metyrosine, α-methyl-tyrosine]	85%			substantially reduced	reduced	matched the therapeutic efficacy	substantially reduced

— US12564622B2, “Preventing cytokine release syndrome” (priority 2017, dated 2026)
